Experimental data published in patent US20240423988A1, “Improvement of Tumor Immunogenicity by Means of Splicing-Controlling Compound” (Kyoto University, priority 2021, published 2024).

Tested on: MC38 cells
Assay: RNA-seq analysis of RNA splicing patterns in MC38 cells
Type: cell-based, murine
Method: [FIG. 4-1] FIG. 4. Identification of Compound 1-inducible splice-neoantigen candidates using RNA-seq analysis. A: A diagram of enhanced tumor immunity through compound 1-induced splice-neoantigens. B: A scheme for the screening of Compound 1-induced splice-neoantigen candidates through transcriptome analysis and prediction for MHC class I presentation. RNA-seq was conducted for MC38 cells treated with 10 μM Compound 1 or 0.1% DMSO for 6 hours in three biological replicates each. RNA-seq analysis was performed as detailed in the “Experimental Methods” section.
Aberrant selective splicing events in cancer cells may become a source of potential neoantigens. As it was confirmed that MHC class I in cancer cells is indispensable for the antitumor effects of Compound 1, Compound 1 was predicted to alter aberrant alternative splicing events and enhance the production of splice-neoantigens (FIG. 4-1A). To validate this concept, RNA-seq analysis was performed to assess RNA splicing patterns affected by Compound 1 in MC38 cells and splice products yielding potential neoantigens capable of binding to MHC class I (FIG. 4-1B). […] Next, to identify neoepitopes translating potential splice-neoantigens, splicing events elicited by Compound 1 that created abnormal coding sequences were extracted, and subsequently, whether these events create abnormal peptides were checked by comparing them with a reference peptide database.
With this approach, 169 Compound 1-induced non-annotated splice events for 130 genes were identified as neoantigen candidates, which were further subjected to prioritization based on the prediction scores for the binding affinity of each peptide to MHC class I alleles (H2-K^b and H2-D^b) with NetMHCpan4.1, the extents of splice rates, and mRNA expression (FIG. 4-2C).
RNA-Seq libraries were prepared using a TruSeq Stranded mRNA Library Kit (Illumina, San Diego, CA) and used for paired-end sequencing on an Illumina NovaSeq 6000 platform. RNA-seq data were mapped to the GRCm38 (mm10) genome sequence using HISAT2 program version 2.2.0 with the “--rna-strandness RF” option. Splice-junction information available from Ensembl gene annotation version 100 was used in this process. Mapped results were discarded when either of the paired reads was not mapped to the genome, or the relationships of mapping positions were abnormal.
For splicing analysis, rMATS program version 4.1.0 was used. For the reference transcript models used in the rMATS analysis, a set of new transcripts based on RNA-seq data was constructed using Cufflinks program version 2.2.1. Because the rMATS program skips soft-clipped reads and reads having indels in their alignment, bam files were modified to replace soft clipping and indel information as not changing the splice position information. After rMATS analysis, altered splicing events were extracted according to the following criteria: FDR<0.01, dPSI≥5.0, and average number of spliced reads≥15 in either of the samples.
Spliced regions were compared with Ensembl gene annotations for describing the amino acid sequence encoded in these regions. Amino acid sequences not observed in the original peptide database were searched and stored with seven amino acids margins from known sequences.

SMILES: Clc1nc(NCc2ccco2)c2[nH]cnc2n1 [Compound 1]
- exonization induced in neurofibromin 1 (Nf1): 108 bp
- genes with induced non-annotated splice events (10 μM, 6 hours): 130
- induced non-annotated splice events identified as neoantigen candidates (10 μM, 6 hours): 169
- mRNA expression and splicing patterns of H2-K^b and PD-L1 (RNA-seq data): not significantly altered
- mRNA expression of genes encoding conventional neoantigens (data not shown): no effect
